# From patent US20230346670A1, “Prebiotic Oral Care Compositions and Methods” (Colgate-Palmolive Company, priority 2020, published 2023)
# Legend:
# Type in all cases: cell-based
# [1] = test system: multi-species biofilms; test: Organic acid levels in supernatant of multi-species biofilms (ion chromatography); conditions: >0 production, <0 consumption, n = 3
# Protocol: (§1) Biofilms are grown vertically on Calcium Deficient Hydroxyapatite (CAD-HA) disks (Hitemco Medical, Old Bethpage, USA) using the Amsterdam Active Adhesion model. Biofilms are allowed to establish during 24 h (37° C., 170 rpm) under microaerophilic conditions (6% O2, 7% CO2, 7% H2, 80% N2). After this 24 h, disks are rinsed 3 times a day for 3 minutes (RT, 250 rpm), for 3 consecutive days, by transferring the lid containing the disks to a new 24-well plate containing 2 mL/well of the appropriate substrate solution. As a negative control, PBS (pH 5.7) without substrate supplementation is used.
# Levels of organic acids in the filter sterilized supernatant of the multi-species biofilms are measured using a 761 Compact Ion Chromatograph (Metrhohm, Switzerland) with a Metrosep Organic acids Guard/4.6 guard column. The supernatants from the substrate-treated multi-species biofilms are analyzed to gain more insight into the influence of the substrates on organic acid consumption/production.
# [2] = test system: S. mitis; test: Multi-species biofilm composition, absolute abundance (Geq/mL); conditions: repeated rinsing
# Protocol: as §1
# (§2) N-acetyl-D-glucosamine (NADG), α-D-lactose, D-(+)-trehalose and D-(+)-raffinose are selected to determine their effects on multi-species biofilm composition. Repeated rinsing of the biofilms with the substrates at a concentration of 1 M results in a significant decrease in absolute numbers in at least four of the pathogenic bacterial species tested in the assay, in comparison to the control, the results of which are described in Table 1 below. Note, NADG decreased absolute numbers of S. sobrinus. Absolute abundances of bacterial species are shown as mean ± SD (n = 3) logarithmic values of the genome equivalents per millilitre (log(Geq/mL)).
# [3] = test system: S. oralis; test: as above; conditions: repeated rinsing
# Protocol: as §1, §2
# [4] = test system: A. naeslundii; test: as above; conditions: repeated rinsing
# Protocol: as §1, §2
# [5] = test system: A. actinomycetemcomitans; test: as above; conditions: repeated rinsing
# Protocol: as §1, §2
# [6] = test system: P. intermedia; test: as above; conditions: repeated rinsing
# Protocol: as §1, §2
# [7] = test system: P. gingivalis; test: as above; conditions: repeated rinsing
# Protocol: as §1, §2
# [8] = test system: S. sobrinus; test: as above; conditions: repeated rinsing
# Protocol: as §1, §2
# [9] = test system: S. gordonii; test: as above; conditions: repeated rinsing
# Protocol: as §1, §2
# [10] = test system: human oral keratinocytes (HOK-18A); test: Inflammatory mediator gene expression in keratinocytes exposed to substrate-treated biofilms (SYBR RT-qPCR); conditions: relative to control, n = 3
# Protocol: Cultures of immortalized human oral keratinocytes (HOK-18A) are grown. […] The IL-8 levels in the cellular supernatant are determined as well. RNA is converted to cDNA and relative expression of inflammatory mediator genes is determined as described above with respect to the cellular housekeeping gene β-actin.
# In HOKs exposed to substrate-treated (substrate concentrations of […]) multi-species biofilms, there are mostly decreases in inflammatory mediator gene expression as measured via SYBR RT-qPCR, the results of which are detailed in Table 7:
# Fold changes in inflammatory mediator gene expression from human oral keratinocytes (HOK-18A) exposed to substrate-treated multi-species biofilms are determined relatively to the control through the 2^^-ΔΔCt method and are shown as the geometric mean (C.I.) (n = 3) of the 2^^-ΔΔCt values. All substrates are dissolved in PBS at a concentration of 1 M (upper part) or 1%(w/v) (lower part). Values between 0 and 1 represent relative downregulation, values >1 represent relative upregulation.
# [11] = test system: P. intermedia virulence genes; test: Virulence gene expression in multi-species biofilm (SYBR RT-qPCR); conditions: for fold change in DnaJ expression, geometric mean (95% C.I.) / fold change in DnaK expression, geometric mean (95% C.I.) / fold change in ECF expression, geometric mean (95% C.I.) / fold change in GroES expression, geometric mean (95% C.I.) / fold change in HtpG expression, geometric mean (95% C.I.) / fold change in KpsD expression, geometric mean (95% C.I.) / fold change in adpc expression, geometric mean (95% C.I.) / fold change in clpB expression, geometric mean (95% C.I.) / fold change in inpA expression, geometric mean (95% C.I.) / fold change in phg expression, geometric mean (95% C.I.): relative to control = 1
# Protocol: as §1
# The virulence of the substrate-treated multi-species biofilms are evaluated by analyzing the relative expression of 33 genes that are recognized as being related to some form of virulence and from 4 periodontal pathogens.
# Expression of bacterial virulence genes is analyzed through SYBR RT-qPCR and normalized for bacterial housekeeping gene expression. […] These effects are illustrated in Tables 6a and 6b:
# Note, for Table 6d, fold changes in virulence gene expression are determined relatively to the control condition through the 2^^-ΔΔCt method and are shown as the geometric mean (C.I.) (n = 3) of the 2^^-ΔΔCt values. All substrates are dissolved in PBS at a concentration of 1 M (upper part) or 1%(w/v) (lower part). Values between 0 and 1 represent relative downregulation, values >1 represent relative upregulation. […] NADG: N-acetyl-D-glucosamine; C.I.: 95% confidence interval.
# [12] = substrate 1 M, listed as D-(+)-trehalose
# [13] = HOK-18A exposed to biofilms treated with substrate 1% (w/v)
# [14] = HOK-18A exposed to biofilms treated with substrate 1 M
# [15] = lower part of Table 6d, head prints 1 M (lower part 1%(w/v))
# [16] = upper part of Table 6d, substrate 1 M, n = 3
smiles,measurement,setting,value
"OC[C@H]1O[C@H](O[C@H]2O[C@H](CO)[C@@H](O)[C@H](O)[C@H]2O)[C@H](O)[C@@H](O)[C@@H]1O [D-trehalose, D-(+)-trehalose]","acetate level in biofilm supernatant, mean ± SD",[1]; substrate 1% (w/v),303 ± 13 mg/L
same,"butyrate level in biofilm supernatant, mean ± SD",[1]; substrate 1% (w/v),1945 ± 9 mg/L
same,"formate level in biofilm supernatant, mean ± SD",[1]; substrate 1% (w/v),3691 ± 89 mg/L
same,"lactate level in biofilm supernatant, mean ± SD",[1]; substrate 1% (w/v),-125 ± 0 mg/L
same,"propionate level in biofilm supernatant, mean ± SD",[1]; substrate 1% (w/v),1962 ± 8 mg/L
same,"acetate level in biofilm supernatant, mean ± SD",[1]; substrate 1 M,1021 ± 41^∗ mg/L
same,"butyrate level in biofilm supernatant, mean ± SD",[1]; substrate 1 M,0±0^∗ mg/L
same,"formate level in biofilm supernatant, mean ± SD",[1]; substrate 1 M,75 ± 8^∗ mg/L
same,"lactate level in biofilm supernatant, mean ± SD",[1]; substrate 1 M,4187 ± 200^∗ mg/L
same,"propionate level in biofilm supernatant, mean ± SD",[1]; substrate 1 M,1577 ± 46^∗ mg/L
same,"acetate level in biofilm supernatant, mean ± SD",[1]; [12],1021 ± 73 mg/L
same,"butyrate level in biofilm supernatant, mean ± SD",[1]; [12],0 ± 0 mg/L
same,"formate level in biofilm supernatant, mean ± SD",[1]; [12],75 ± 8 mg/L
same,"lactate level in biofilm supernatant, mean ± SD",[1]; [12],4187 ± 200 mg/L
same,"propionate level in biofilm supernatant, mean ± SD",[1]; [12],1577 ± 46 mg/L
same,"absolute abundance of S. mitis, mean ± SD log (Geq/mL)",[2]; substrate 1% (w/v),2.65 ± 0.00 log (Geq/mL)
same,"absolute abundance of S. mitis, mean ± SD log (Geq/mL)","[2]; substrate 1 M in PBS, n = 3",3.15 ± 0.71 log (Geq/mL)
same,"absolute abundance of S. oralis, mean ± SD log (Geq/mL)",[3]; substrate 1% (w/v),6.59 ± 0.42 log (Geq/mL)
same,"absolute abundance of S. oralis, mean ± SD log (Geq/mL)","[3]; substrate 1 M in PBS, n = 3",6.71 ± 0.48 log (Geq/mL)
same,"absolute abundance of A. naeslundii (An), mean ± SD log (Geq/mL)",[4]; substrate 1% (w/v),7.6 ± 0.15 log (Geq/mL)
same,"absolute abundance of A. naeslundii (An), mean ± SD log (Geq/mL)","[4]; substrate 1 M in PBS, n = 3",4.81 ± 0.47^∗ log (Geq/mL)
same,"absolute abundance of A. actinomycetemcomitans (Aa), mean ± SD log (Geq/mL)",[5]; substrate 1% (w/v),9.28 ± 0.43 log (Geq/mL)
same,"absolute abundance of A. actinomycetemcomitans (Aa), mean ± SD log (Geq/mL)","[5]; substrate 1 M in PBS, n = 3",7.86 ± 0.22^∗ log (Geq/mL)
same,"absolute abundance of P. intermedia (Pi), mean ± SD log (Geq/mL)",[6]; substrate 1% (w/v),7.88 ± 0.33 log (Geq/mL)
same,"absolute abundance of P. intermedia (Pi), mean ± SD log (Geq/mL)","[6]; substrate 1 M in PBS, n = 3",4.47 ± 0.60^∗ log (Geq/mL)
same,"absolute abundance of P. gingivalis (Pg), mean ± SD log (Geq/mL)",[7]; substrate 1% (w/v),7.05 ± 0.19 log (Geq/mL)
same,"absolute abundance of P. gingivalis (Pg), mean ± SD log (Geq/mL)","[7]; substrate 1 M in PBS, n = 3",4.37 ± 0.29^∗ log (Geq/mL)
same,"absolute abundance of S. sobrinus, mean ± SD log (Geq/mL)",[8]; substrate 1% (w/v),5.27 ± 0.19 log (Geq/mL)
same,"absolute abundance of S. sobrinus, mean ± SD log (Geq/mL)","[8]; substrate 1 M in PBS, n = 3",7.44 ± 0.18^∗ log (Geq/mL)
same,"absolute abundance of S. gordonii, mean ± SD log (Geq/mL)",[9]; substrate 1% (w/v),8.45 ± 0.27 log (Geq/mL)
same,"absolute abundance of S. gordonii, mean ± SD log (Geq/mL)","[9]; substrate 1 M in PBS, n = 3",9.39 ± 0.31 log (Geq/mL)
same,"fold change in IL-1β gene expression, geometric mean (C.I.)",[10]; [13],1.06 (0.55-2.06) fold
same,"fold change in IL-6 gene expression, geometric mean (C.I.)",[10]; [13],1.00 (0.46-2.17) fold
same,"fold change in IL-8 gene expression, geometric mean (C.I.)",[10]; [13],1.32 (0.89-1.94)^∗ fold
same,"fold change in MMP-8 gene expression, geometric mean (C.I.)",[10]; [13],0.66 (0.46-0.93) fold
same,"fold change in TNF-α gene expression, geometric mean (C.I.)",[10]; [13],0.94 (0.54-1.64) fold
same,"fold change in IL-1β gene expression, geometric mean (C.I.)",[10]; [14],0.79 (0.45-1.38) fold
same,"fold change in IL-6 gene expression, geometric mean (C.I.)",[10]; [14],1.27 (0.11-14.86) fold
same,"fold change in IL-8 gene expression, geometric mean (C.I.)",[10]; [14],0.22 (0.15-0.34)^∗ fold
same,"fold change in MMP-8 gene expression, geometric mean (C.I.)",[10]; [14],0.81 (0.68-0.95) fold
same,"fold change in TNF-α gene expression, geometric mean (C.I.)",[10]; [14],0.66 (0.41-1.06)^∗ fold
same,"fold change in DnaJ expression, geometric mean (95% C.I.)",[11]; [15],0.62 (0.08-4.67) fold
same,"fold change in DnaK expression, geometric mean (95% C.I.)",[11]; [15],0.78 (0.44-1.36) fold
same,"fold change in ECF expression, geometric mean (95% C.I.)",[11]; [15],0.69 (0.53-0.91) fold
same,"fold change in GroES expression, geometric mean (95% C.I.)",[11]; [15],1.22 (0.61-2.45) fold
same,"fold change in HtpG expression, geometric mean (95% C.I.)",[11]; [15],0.69 (0.42-1.12) fold
same,"fold change in KpsD expression, geometric mean (95% C.I.)",[11]; [15],1.26 (0.52-3.08) fold
same,"fold change in adpc expression, geometric mean (95% C.I.)",[11]; [15],0.64 (0.29-1.4) fold
same,"fold change in clpB expression, geometric mean (95% C.I.)",[11]; [15],1.30 (0.44-3.83) fold
same,"fold change in inpA expression, geometric mean (95% C.I.)",[11]; [15],0.56 (0.31-1.01)^∗ fold
same,"fold change in phg expression, geometric mean (95% C.I.)",[11]; [15],0.86 (0.82-0.89) fold
same,impact on P. intermedia virulence gene expression,[11]; substrate 1% (w/v),limited impact
same,downregulation of P. intermedia virulence gene expression,[11]; substrate 1 M,5 fold
same,"fold change in DnaJ expression, geometric mean (95% C.I.)",[11]; [16],1.81 (1.21-2.71) fold
same,"fold change in DnaK expression, geometric mean (95% C.I.)",[11]; [16],8.82 (6.83-11.38)^∗ fold
same,"fold change in ECF expression, geometric mean (95% C.I.)",[11]; [16],6.97 (1.65-29.40)^∗ fold
same,"fold change in GroES expression, geometric mean (95% C.I.)",[11]; [16],11.52 (2.46-53.90)^∗ fold
same,"fold change in HtpG expression, geometric mean (95% C.I.)",[11]; [16],0.67 (0.43-1.03) fold
same,"fold change in KpsD expression, geometric mean (95% C.I.)",[11]; [16],0.59 (0.47-0.75) fold
same,"fold change in adpc expression, geometric mean (95% C.I.)",[11]; [16],1.45 (0.76-2.77) fold
same,"fold change in clpB expression, geometric mean (95% C.I.)",[11]; [16],1.90 (0.77-4.68) fold
same,"fold change in inpA expression, geometric mean (95% C.I.)",[11]; [16],0.81 (0.41-1.63) fold
same,"fold change in phg expression, geometric mean (95% C.I.)",[11]; [16],0.20 (0.14-0.29)^∗ fold
